Consider 6 compounds from US20230295134A1, “USE OF PHENYLQUINOLINONE DERIVATIVE OR FLAVONOID DERIVATIVE FOR TREATING NEUROPATHIC PAIN” (HANGZHOU BIO-SINCERITY PHARMA-TECH CO., LTD., priority 2019, published 2023).

In general, half-life refers to how long it takes for the measured level to halve. Higher therefore signals slow loss. Usually bioavailability stands for the share of a dose that reaches the circulation, judged against a reference dose that is usually intravenous. The term LD50 denotes the dose at which mortality reaches 50%.

The structures appear in SMILES notation.

Data set [1] has as its system CCI model rats. In words: Mechanical withdrawal threshold in chronic constrictive injury (CCI) model, single dose. The data set is classed as in vivo, SD rats. From the text: Male SD rats, weighting 200-250 g, were used to establish chronic constrictive injury (CCI) model. The common sciatic nerve was exposed at the level of the middle of the thigh, and 4 ligatures (4.0 chromic gut, 0.15 mm) were tied loosely with about 1-2 mm spacing to the position proximal to the sciatic's trifurcation. The rats in sham group were subjected to the same operative procedure as the CCI model but without nerve ligation. On the seventh day after operation, mechanical withdrawal threshold was measured in CCI model rats with Electric Von Frey (IITC-2391) for 2 days to choose rats with stable mechanical withdrawal threshold, which were divided into 5 groups: 1) model; 2) 50 mg/kg Gabapentin; 3) 9 mg/kg Compound I-4; 4) 3 mg/kg Compound I-4; and 5) 1 mg/kg Compound I-4. Group 2 -5 were given corresponding medicines orally with the dose of 1 ml/100 g, while the Group model and normal were given saline of the same volume with the same method. Mechanical withdrawal threshold was measured before administration and 1, 2, 4, 6 h after intragastric administration, and the results were shown in FIG. 3.

The subject of a further data set is PSL model rats. In words: Heat pain threshold in partial sciatic nerve ligation (PSL) model. It is filed as in vivo, SD rats. Conditions: for heat pain threshold vs Pregabalin group: comparator 30 mg/kg Pregabalin. The procedure:
Male SD rats, weighting 200-250 g, were used to establish partial sciatic nerve ligation (PSL) model. The rats were subjected to ligation of the right sciatic nerve at high-tight level, so that ⅓-½ thickness of the sciatic nerve was trapped in the ligature, and then the wound was closed. The rats in sham group were subjected to the same operative procedure as the PSL model but without nerve ligation. On the sixth day after operation, heat pain threshold was measured in PSL model rats with Plantar Test Apparatus (BME-410) for 2 days to choose rats with stable heat pain threshold, which were randomly divided into 5 groups: 1) model; 2) 30 mg/kg Pregabalin; 3) 3 mg/kg Compound I-6; 4) 1 mg/kg Compound I-6; and 5) 0.3 mg/kg Compound I-6. Group 2-5 were given corresponding medicines orally with the dose of 1 ml/100 g, while the Group model and normal were given saline of the same volume with the same method. Heat pain threshold was measured before administration and 1, 2, 4, 6 h after intragastric administration, and the results were shown in FIG. 1.
Male SD rats, weighting 200-250g, were used to establish partial sciatic nerve ligation (PSL) model. The rats were subjected to ligation of the right sciatic nerve at high-tight level, so that ⅓-½ thickness of the sciatic nerve was trapped in the ligature, and then the wound was closed. The rats in sham group were subjected to the same operative procedure as the PSL model but without nerve ligation. On the sixth day after operation, heat pain threshold was measured in PSL model rats with Plantar Test Apparatus (BME-410) for 2 days to choose rats with stable heat pain threshold, which were randomly divided into 7 groups: 1) model; 2) 50 mg/kg Gabapentin; 3) 100 mg/kg Carbamazepine; 4) 10 mg/kg Amitriptyline; 5) 1 mg/kg Compound I-4; 6) 1 mg/kg Compound I-6; and 7) 1 mg/kg Compound II-4. Group 2 -7 were given corresponding medicines orally with the dose of 1 ml/100 g, while the Group model and normal were given saline of the same volume with the same method. Heat pain threshold was measured before and 1, 2, 4, 6h after intragastric administration, and the results were shown in FIG. 2.

For data set [2], the system named is diabetic neuropathic pain model. In words: Heat pain threshold in STZ-induced diabetic neuropathic pain model. The data set is classed as in vivo, SD rats. Conditions: STZ rats; for heat pain threshold of diabetic neuropathic pain model: single dose PO, I-6 1 mg/kg, Gabapentin 50 mg/kg. The procedure: Male SD rats (200-250 g) with normal blood sugar were fasted but had free access to water for 12 hours. The diabetes model was induced by intraperitoneal injection of 60 mg/kg streptozotocin (STZ), and was examined by 2-hour postprandial sugar level on day 7 after injection, which should be higher than 16 mmol/L. The rats in normal group were given an equal volume of citric acid-sodium citrate buffer (pH 4.2). On day 14 after injection, the heat pain threshold of rats in diabetes model or normal group were measured with Plantar Test Apparatus (BME-410) to examine the success of diabetic neuropathic pain model. The rats in diabetic neuropathic pain model were divided into 3 groups: 1) model; 2) 50 mg/kg Gabapentin; and 3) 1 mg/kg Compound I-6. Group 2 and 3 were given corresponding medicines orally with the dose of 1 ml/100 g, while the Group model and normal were given saline of the same volume with the same method. Heat pain threshold was measured before administration and 1, 2, 4, 6 h after administration, and the results were shown in FIG. 4.

The nature of data set [3]: In vivo pharmacokinetic studies (bioavailability). Conditions: SD rats. The procedure: The in vivo pharmacokinetic studies of Compound I-6 were conducted in SD rats (n=3).
Data set [4] is described as follows: Security: intragastric administration of different dosages in mice. It is filed as in vivo. Conditions: mouse, in vivo, po; ICR mice; intragastric administration; read-out: half lethal dose (LD50).
Another data set has as its system ICR mice. The data set is described as above. The data set is classed as in vivo.
Data set [5] has as its system CCI model rats. Kind of data set: Mechanical withdrawal threshold in CCI model, 5 days repeated administration. The data set is classed as in vivo, SD rats. From the text: Male SD rats, weighting 200-250 g, were used to establish CCI model. The common sciatic nerve was exposed at the level of the middle of the thigh, and 4 ligatures (4.0 chromic gut, 0.15 mm) were tied loosely with about 1-2 mm spacing to the position proximal to the sciatic's trifurcation, then the wound was closed. The rats in sham group were subjected to the same operative procedure as the CCI model but without nerve ligation. On the seventh day after operation, mechanical withdrawal threshold was measured in CCI model rats with Electric Von Frey (IITC-2391) for 2 days to choose rats with stable mechanical withdrawal threshold, which were divided into 5 groups: 1) model; 2) 50 mg/kg Gabapentin; 3) 3 mg/kg Compound I-10; 4) 1 mg/kg Compound I-10; and 5) 0.3 mg/kg Compound I-10. Group 2-5 were given corresponding medicines orally with the dose of 1 ml/100 g for 5 days, while the Group model and normal were given saline of the same volume with the same method. Mechanical withdrawal threshold was measured before and 2 h after intragastric administration, and the results were shown in FIG. 6.

The test system of data set [6] is OXA neuropathic pain model rats. Kind of data set: Mechanical withdrawal threshold in Oxaliplatin chemotherapy-induced neuropathic pain model. The data set is classed as in vivo, SD rats. Conditions: for mechanical withdrawal threshold vs Pregabalin: 2nd-4th hour after administration. The procedure: Male SD rats (200-250 g) were injected 4 mg/kg of Oxaliplatin by intraperitoneal on day 1, 2, 8, 9, 15, 16, 22 and 23 to establish chemotherapy-induced neuropathic pain model. On day 24, the mechanical withdrawal threshold of rats in group normal and model were measured with Electric Von Frey (IITC-2391) to choose rats with stable mechanical withdrawal threshold, which were randomly divided into 5 groups: 1) model; 2) 30 mg/kg Pregabalin; 3) 9 mg/kg Compound II-4; 4) 3 mg/kg Compound II-4; and 5) 1 mg/kg Compound II-4. Group 2 -5 were given corresponding medicines orally with the dose of 1 ml/100g, while the Group model and normal were given saline of the same volume with the same method. Mechanical withdrawal threshold was measured before administration and 1, 2, 4, 6h after single administration, and the results were shown in FIG. 5.

Where [7] appears, read: 1 mg/kg PO single dose, since 1 hour after administration.
Setting [8] is: 1 mg/kg PO, comparator 50 mg/kg Gabapentin.

Take `Cn1c(-c2ccc(OCCCN3CCCCC3)cc2)cc(=O)c2ccccc21` [Compound I-4, 1-Methyl-2-(4-(3-(Piperidin-1-Yl)Propoxy)Phenyl)Quinolin-4(1H)-One]: the “mechanical withdrawal threshold vs model group” value with CCI model rats [1] (3 mg/kg PO, 1st-4th hour after administration) was “significantly higher (P<0.01) than model group”. The “mechanical withdrawal threshold, relation to dose” value in the data set with CCI model rats [1] (single dose 1, 3 or 9 mg/kg PO) was “dose-dependent increase”. The effective time entry with CCI model rats [1] (single dose PO, compared with 50 mg/kg Gabapentin) was “longer than Gabapentin”. Moreover, the “heat pain threshold vs model group” value in the data set with PSL model rats (setting [7]) is “significantly higher than model group”.
On to `CCn1c(-c2ccc(OCCCN3CCCCC3)cc2)cc(=O)c2ccccc21` [Compound I-6, 1-Ethyl-2-(4-(3-(Piperidin-1-Yl)Propoxy)Phenyl)Quinolin-4(1H)-One], for which the “effective time vs Gabapentin” value in data set [2] (setting [8]) is given as “longer effective time”. For the same compound, in data set [2] (setting [8]), the “heat pain threshold vs Gabapentin” value is recorded as “significantly higher heat pain threshold (P<0.01)”. Besides, in data set [2], the “heat pain threshold of diabetic neuropathic pain model” value is recorded as “could improve the heat pain threshold”. The “time at which peak plasma concentrations occur” value in data set [3] (P.O 10.0 mg/kg) was determined as 2.00 ± 1.73 h. Further, the half-life in data set [3] (Sprague-Dawley (SD), rat, plasma, iv, 1 mg/kg, I.V 1.00mg/kg) is 6 ± 1.43 h; in data set [3] (Sprague-Dawley (SD), rat, plasma, po, P.O 10.0 mg/kg) it was 3.79 ± 0.12 h. Besides, the bioavailability in data set [3] (Sprague-Dawley (SD), rat, plasma, po, 10 mg/kg, read-out: absolute bioavailability) was 51.3%. Besides, in data set [4], the LD50 is > 1020 mg/kg. For the same compound, the “signs after intragastric administration” value was “no abnormal signs” in the data set with ICR mice (64 mg/kg); “one of the mice given a dose of 256 mg/kg suffered convulsions but recovered on the second day” in the data set with ICR mice (256 mg/kg); “one of the mice given a dose of 1024 mg/kg suffered convulsions and finally died on the second day” in the data set on ICR mice (1024 mg/kg). Besides, the “heat pain threshold vs model group” value in the data set with PSL model rats (0.3 mg/kg PO, 2nd hour after administration) was “significantly higher (P<0.01) than model group”; in the data set on PSL model rats (setting [7]), “significantly higher than model group”. The “heat pain threshold vs Pregabalin group” value with PSL model rats (1.0 mg/kg PO) is given as “raised to be compared to 30 mg/kg Pregabalin group”; in the data set with PSL model rats (3.0 mg/kg PO, 1st-2nd hour) it was “better than Pregabalin group”. For the same compound, in the data set on PSL model rats (3.0 mg/kg PO, 1st-2nd hour after administration), the “heat pain threshold vs sham group” value is given as “further improved to the level equal to sham group”. The “heat pain threshold, relation to dose” value in the data set with PSL model rats (single dose 0.3, 1 or 3 mg/kg PO) was “increased in a dose-dependent manner”.
`COc1c(-c2ccc(OCCCN3CCCCC3)cc2)n(C)c2ccccc2c1=O` [Compound I-10, 3-Methoxy-1-Methyl-2-(4-(3-(Piperidin-1-Yl)Propoxy)Phenyl)Quinolin-4(1H)-One]: the “mechanical withdrawal threshold vs model group” value in the data set on CCI model rats [5] (1 mg/kg PO for 5 days, 1st-5th day after administration) is given as “significantly higher (P<0.01) than model group”. Further, in the data set on CCI model rats [5] (5 days PO, compared with 50 mg/kg Gabapentin), the “dose-dependency and stability of efficacy” value is “better dose-dependency and stability of efficacy compared to Gabapentin”. For the same compound, the “mechanical withdrawal threshold, relation to dose” value with CCI model rats [5] (repeated administration 5 days, 0.3, 1 or 3 mg/kg PO) is “increased in a dose-dependent manner”.
Turning to `COc1c(-c2ccc(OCCCN3CCCCC3)cc2)oc2ccccc2c1=O` [Compound II-4, 3-Methoxy-2-(4-(3-(Piperidin-1-Yl)Propoxy)Phenyl)-4H-Chromen-4-One], the “heat pain threshold vs model group” value in the data set on PSL model rats (setting [7]) is on record as “significantly higher than model group”. The “mechanical withdrawal threshold vs model group” value in data set [6] (1 mg/kg PO, 1st-2nd hour after administration) was “significantly higher (P<0.01) than model group”. For the same compound, the “mechanical withdrawal threshold vs Pregabalin” value in data set [6] (3 mg/kg PO) and in data set [6] (9 mg/kg PO) was “significantly higher (P<0.05) than 30 mg/kg Pregabalin” each time. Further, the “mechanical withdrawal threshold, relation to dose” value in data set [6] (single dose 1, 3 or 9 mg/kg PO) was “dosage-dependent increase”. Besides, in data set [6] (single dose PO), the “improvement of mechanical withdrawal threshold compared with Pregabalin” value was “more effectively and longer”.
Take `NCC1(CC(=O)O)CCCCC1` [Gabapentin, reference compound]: the figures for the “mechanical withdrawal threshold vs model group” value in the data set with CCI model rats [5] (50 mg/kg PO for 5 days) and with CCI model rats [1] (50 mg/kg PO single dose) were “only kept the significant difference during 2nd-5th day” and “only remained significantly higher than model group during 1st-2nd hour”, respectively. For the same compound, the “heat pain threshold of diabetic neuropathic pain model” value in data set [2] is recorded as “could improve the heat pain threshold”.
On to `CC(C)C[C@H](CN)CC(=O)O` [Pregabalin, reference compound], for which the “onset of action on mechanical withdrawal threshold” value in data set [6] (30 mg/kg PO) was “rapid action”.
